From patent US12318452B2, “Degraders of WEE1 kinase” (DANA-FARBER CANCER INSTITUTE, INC., priority 2018, dated 2025)

Target: Wee1 (Homo sapiens, UniProt P30291)
Experiment: Cellular degradation of Wee1 by immunoblot, 6-hour treatment of MOLT4 cells
Assay type: cell-based
Parameters: endogenous in cells; host or cells: MOLT4 (wild type; CRBN-/- as control)
Conditions: MOLT4 cells; for percent Wee1 degradation at 1 µM: MOLT-4, 1 μM, approximated by immunoblot, read-out: Extent of Degradation of Wee1
Method: General Protocol: HT-29, MOLT4 wild type (WT) or CRBN^-/- cells were plated in a 6 well plate and treated for 6 hours with the indicated concentrations of the inventive compounds and control. HT-29 cells were cultured in McCoy's Media supplemented with 10% FBS and 1% Penicillin/Streptomycin. MOLT4 WT and CRBN^-/- cells were cultured in Roswell Park Memorial Institute (RPMI) medium supplemented with 10% FBS and 1% Penicillin/Streptomycin. Mycoplasma testing was performed every month and all lines were negative. Immunoblotting: Cells were washed with phosphate-buffered saline (PBS) and then lysed using radioimmunoprecipitation assay (RIPA) buffer supplemented with protease and phosphatase inhibitor cocktail (Roche) on ice for 15 minutes. The lysates were centrifuged at 14,000 rpm for 15 minutes at 4° C. and protein was quantified by bicinchoninic acid (BCA) assay (PierceTM). Primary antibodies used include: Wee1 ([…]) (Cell Signaling Technology®, 13084S), polo-like kinase 1 (PLK1) (Thermo Fisher Scientific, 37-7000), phosphor-cdc2 (Y15) (10A11) (Cell Signaling Technology®, […]), phospho-histone H3 ([…]) (Cell Signaling Technology®, […]), Ikaros ([…]) (Cell Signaling Technology®, 14859S), Aiolos ([…]) (Cell Signaling Technology®, 15103), casein kinase 1 alpha (Abcam®, 108296), β-actin (Cell Signaling Technology®, 8H10D10). FIG. 2A is an immunoblot showing that compound 13 degraded Wee1 after a 6-hour treatment in MOLT4 cells, and induced the downstream changes expected from Wee1 loss-including a decrease in phosphorylated cyclin-dependent kinase 1 (pCDK1) (Y15) and an increase in pH 3. […] Degradation of Wee1 by compound 13 was rescued in MOLT4 CRBN^-/- cells. MOLT4 WT and CRBN^-/- cells were plated in a 6-well plate at 2.25 million cells per well in 3 mL media (RPMI+10% FBS+1% Penn/Strep). After treatment with the indicated concentrations of candidate compounds, cells were incubated for 6 hours at 37° C. 5% CO2. To harvest, the cells were washed 1× with cold PBS, then collected by centrifugation. Cell pellets were lysed in RIPA buffer with protease and phosphatase inhibitors (Roche). Lysates were clarified by centrifugation, and protein concentrations were normalized using a BCA assay (Thermo ScientificTM). The samples were diluted with 4×LDS+10% β-mercaptoethanol, and were boiled at 95° C. for 5 minutes. Proteins of interest were then assessed by western blotting. […] The experimental protocol was the same as in Example 28.

Sequence of Wee1 (P30291 whole entry): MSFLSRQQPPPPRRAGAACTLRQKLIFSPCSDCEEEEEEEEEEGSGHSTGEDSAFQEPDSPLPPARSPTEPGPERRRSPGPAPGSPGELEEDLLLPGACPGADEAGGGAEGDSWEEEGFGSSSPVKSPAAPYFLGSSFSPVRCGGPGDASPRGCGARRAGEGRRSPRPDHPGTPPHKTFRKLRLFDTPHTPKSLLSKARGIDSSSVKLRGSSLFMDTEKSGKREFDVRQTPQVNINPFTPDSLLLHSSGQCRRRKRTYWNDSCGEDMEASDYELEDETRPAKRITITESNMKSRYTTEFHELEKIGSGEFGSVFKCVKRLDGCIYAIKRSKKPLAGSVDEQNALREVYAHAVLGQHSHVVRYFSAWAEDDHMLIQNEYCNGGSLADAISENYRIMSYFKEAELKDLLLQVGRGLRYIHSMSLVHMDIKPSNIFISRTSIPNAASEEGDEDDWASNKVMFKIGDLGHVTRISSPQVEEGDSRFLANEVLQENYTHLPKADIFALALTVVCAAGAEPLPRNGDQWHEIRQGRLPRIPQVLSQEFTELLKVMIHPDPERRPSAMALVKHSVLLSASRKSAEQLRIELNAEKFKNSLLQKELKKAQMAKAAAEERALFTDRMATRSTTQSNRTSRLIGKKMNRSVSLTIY

SMILES	percent Wee1 degradation at 1 µM	Wee1 degradation (immunoblot)
C=CCn1c(=O)c2cnc(Nc3ccc(N4CCN(CCCNc5cccc6c5C(=O)N(C5CCC(=O)NC5=O)C6=O)CC4)cc3)nc2n1-c1cccc(C(F)(F)F)n1 (centres unmarked) [Compound 18, 4-((3-(4-(4-((2-Allyl-3-oxo-1-(6-(trifluoromethyl)pyridin-2-yl)-2,3-dihydro-1H-pyrazolo[3,4-d]pyrimidin-6-yl)amino)phenyl)piperazin-1-yl)propyl)amino)-2-(2,6-dioxopiperidin-3-yl)isoindoline-1,3-dione]	> 50%	–
C=CCn1c(=O)c2cnc(Nc3ccc(N4CCN(CCCNc5cccc6c5C(=O)N(C5CCC(=O)NC5=O)C6=O)CC4)cc3)nc2n1-c1cccc(OC)n1 (centres unmarked) [Compound 17, 4-((3-(4-(4-((2-Allyl-1-(6-methoxypyridin-2-yl)-3-oxo-2,3-dihydro-1H-pyrazolo[3,4-d]pyrimidin-6-yl)amino)phenyl)piperazin-1-yl)propyl)amino)-2-(2,6-dioxopiperidin-3-yl)isoindoline-1,3-dione]	> 50%	–
C=CCn1c(=O)c2cnc(Nc3ccc(N4CCN(CCCNC(=O)CCOCCOCCOCCN5CCN(Cc6ccc(COc7cccc8c7CN([C@H]7CCC(=O)NC7=O)C8=O)cc6)CC5)CC4)cc3)nc2n1-c1cccc(C(C)(C)O)n1 [Compound 10, (S)—N-(3-(4-(4-((2-Allyl-1-(6-(2-hydroxypropan-2-yl)pyridin-2-yl)-3-oxo-2,3-dihydro-1H-pyrazolo[3,4-d]pyrimidin-6-yl)amino)phenyl)piperazin-1-yl)propyl)-3-(2-(2-(2-(4-(4-(((2-(2,6-dioxopiperidin-3-yl)-1-oxoisoindolin-4-yl)oxy)methyl)benzyl)piperazin-1-yl)ethoxy)ethoxy)ethoxy)propanamide]	25 to 50%	–
C=CCn1c(=O)c2cnc(Nc3ccc(N4CCN(C(=O)CCCCCCCCOc5cccc6c5C(=O)N(C5CCC(=O)NC5=O)C6=O)CC4)cc3)nc2n1-c1cccc(C(C)(C)O)n1 (centres unmarked) [Compound 6, 4-((9-(4-(4-((2-allyl-1-(6-(2-hydroxypropan-2-yl)pyridin-2-yl)-3-oxo-2,3-dihydro-1H-pyrazolo[3,4-d]pyrimidin-6-yl)amino)phenyl)piperazin-1-yl)-9-oxononyl)oxy)-2-(2,6-dioxopiperidin-3-yl)isoindoline-1,3-dione]	25 to 50%	–
C=CCn1c(=O)c2cnc(Nc3ccc(N4CCN(CCCNC(=O)CCOCCOCCOCCOCCNc5cccc6c5C(=O)N(C5CCC(=O)NC5=O)C6=O)CC4)cc3)nc2n1-c1cccc(C(C)(C)O)n1 (centres unmarked) [Compound 8, N-(3-(4-(4-((2-allyl-1-(6-(2-hydroxypropan-2-yl)pyridin-2-yl)-3-oxo-2,3-dihydro-1H-pyrazolo[3,4-d]pyrimidin-6-yl)amino)phenyl)piperazin-1-yl)propyl)-1-((2-(2,6-dioxopiperidin-3-yl)-1,3-dioxoisoindolin-4-yl)amino)-3,6,9,12-tetraoxapentadecan-15-amide]	> 50%	–
C=CCn1c(=O)c2cnc(Nc3ccc(N4CCN(C(=O)CCOCCNc5cccc6c5C(=O)N(C5CCC(=O)NC5=O)C6=O)CC4)cc3)nc2n1-c1cccc(C(C)(C)O)n1 (centres unmarked) [Compound 5, 4-((2-(3-(4-(4-((2-allyl-1-(6-(2-hydroxypropan-2-yl)pyridin-2-yl)-3-oxo-2,3-dihydro-1H-pyrazolo[3,4-d]pyrimidin-6-yl)amino)phenyl)piperazin-1-yl)-3-oxopropoxy)ethyl)amino)-2-(2,6-dioxopiperidin-3-yl)isoindoline-1,3-dione]	> 50%	–
C=CCn1c(=O)c2cnc(Nc3ccc(N4CCN(C(=O)CCOCCOCCNc5cccc6c5CN(C5CCC(=O)NC5=O)C6=O)CC4)cc3)nc2n1-c1cccc(C(C)(C)O)n1 (centres unmarked) [Compound 4, 3-(4-((2-(2-(3-(4-(4-((2-allyl-1-(6-(2-hydroxypropan-2-yl)pyridin-2-yl)-3-oxo-2,3-dihydro-1H-pyrazolo[3,4-d]pyrimidin-6-yl)amino)phenyl)piperazin-1-yl)-3-oxopropoxy)ethoxy)ethyl)amino)-1-oxoisoindolin-2-yl)piperidine-2,6-dione]	25 to 50%	–
C=CCn1c(=O)c2cnc(Nc3ccc(N4CCN(C(=O)CCOCCOCCOCCN5CCN(Cc6ccc(COc7cccc8c7CN([C@H]7CCC(=O)NC7=O)C8=O)cc6)CC5)CC4)cc3)nc2n1-c1cccc(C(C)(C)O)n1 [Compound 9, (S)-3-(4-((4-((4-(2-(2-(2-(3-(4-(4-((2-allyl-1-(6-(2-hydroxypropan-2-yl)pyridin-2-yl)-3-oxo-2,3-dihydro-1H-pyrazolo[3,4-d]pyrimidin-6-yl)amino)phenyl)piperazin-1-yl)-3-oxopropoxy)ethoxy)ethoxy)ethyl)piperazin-1-yl)methyl)benzyl)oxy)-1-oxoisoindolin-2-yl)piperidine-2,6-dione]	> 50%	–
C=CCn1c(=O)c2cnc(Nc3ccc(N4CCN(C(=O)CCOCCOCCOCCOCCNc5cccc6c5C(=O)N(C5CCC(=O)NC5=O)C6=O)CC4)cc3)nc2n1-c1cccc(C(C)(C)O)n1 (centres unmarked) [Compound 1, 4-((15-(4-(4-((2-allyl-1-(6-(2-hydroxypropan-2-yl)pyridin-2-yl)-3-oxo-2,3-dihydro-1H-pyrazolo[3,4-d]pyrimidin-6-yl)amino)phenyl)piperazin-1-yl)-15-oxo-3,6,9,12-tetraoxapentadecyl)amino)-2-(2,6-dioxopiperidin-3-yl)isoindoline-1,3-dione]	< 25%	–
C=CCn1c(=O)c2cnc(Nc3ccc(N(C)CCCCNc4cccc5c4C(=O)N(C4CCC(=O)NC4=O)C5=O)cc3)nc2n1-c1cccc(C(C)(C)O)n1 (centres unmarked) [Compound 15, 4-((4-((4-((2-Allyl-1-(6-(2-hydroxypropan-2-yl)pyridin-2-yl)-3-oxo-2,3-dihydro-1H-pyrazolo[3,4-d]pyrimidin-6-yl)amino)phenyl)(methyl)amino)butyl)amino)-2-(2,6-dioxopiperidin-3-yl)isoindoline-1,3-dione]	25 to 50%	–
C=CCn1c(=O)c2cnc(Nc3ccc(N(C)CCCCNc4ccc5c(c4)C(=O)N(C4CCC(=O)NC4=O)C5=O)cc3)nc2n1-c1cccc(C(C)(C)O)n1 (centres unmarked) [Compound 16, 5-((4-((4-((2-Allyl-1-(6-(2-hydroxypropan-2-yl)pyridin-2-yl)-3-oxo-2,3-dihydro-1H-pyrazolo[3,4-d]pyrimidin-6-yl)amino)phenyl)(methyl)amino)butyl)amino)-2-(2,6-dioxopiperidin-3-yl)isoindoline-1,3-dione]	> 50%	–
C=CCn1c(=O)c2cnc(Nc3ccc(N4CCN(C(=O)CCOCCOCCNc5cccc6c5C(=O)N(C5CCC(=O)NC5=O)C6=O)CC4)cc3)nc2n1-c1cccc(C(C)(C)O)n1 (centres unmarked) [Compound 3, 4-((2-(2-(3-(4-(4-((2-allyl-1-(6-(2-hydroxypropan-2-yl)pyridin-2-yl)-3-oxo-2,3-dihydro-1H-pyrazolo[3,4-d]pyrimidin-6-yl)amino)phenyl)piperazin-1-yl)-3-oxopropoxy)ethoxy)ethyl)amino)-2-(2,6-dioxopiperidin-3-yl)isoindoline-1,3-dione]	> 50%	–
C=CCn1c(=O)c2cnc(Nc3ccc(N4CCN(CCCCCC(=O)N[C@H](C(=O)N5C[C@H](O)C[C@H]5C(=O)N[C@@H](C)c5ccc(-c6scnc6C)cc5)C(C)(C)C)CC4)cc3)nc2n1-c1cccc(C(C)(C)O)n1 [Compound 21, tert-butyl (2S,4R)-1-((S)-2-(6-(4-(4-((2-allyl-1-(6-(2-hydroxypropan-2-yl)pyridin-2-yl)-3-oxo-2,3-dihydro-1H-pyrazolo[3,4-d]pyrimidin-6-yl)amino)phenyl)piperazin-1-yl)hexanamido)-3,3-dimethylbutanoyl)-4-hydroxy-N—((S)-1-(4-(4-methylthiazol-5-yl)phenyl)ethyl)pyrrolidine-2-carboxamide]	< 25%	Degradation of Wee1 was also observed
